A value given as a limit tells only on which side of the number the result lay.

The target in one assay is JH2 domain of human Tyk2 (Homo sapiens (Human), UniProt P29597). As to the kind of experiment: JH2 Biochemical Assay (TR-FRET probe displacement). It is filed as binding. (In general: TR-FRET usually uses a lanthanide donor and a delayed reading to cut background.)
The target in another assay is Tyk2 (Homo sapiens (Human), UniProt P29597). Briefly: pSTAT4 Cell Assay (MSD, NK92 cells). It is filed as cell-based. The following applies: MSD.
Sequence of Tyk2 (P29597 whole entry, the tested form may be a part): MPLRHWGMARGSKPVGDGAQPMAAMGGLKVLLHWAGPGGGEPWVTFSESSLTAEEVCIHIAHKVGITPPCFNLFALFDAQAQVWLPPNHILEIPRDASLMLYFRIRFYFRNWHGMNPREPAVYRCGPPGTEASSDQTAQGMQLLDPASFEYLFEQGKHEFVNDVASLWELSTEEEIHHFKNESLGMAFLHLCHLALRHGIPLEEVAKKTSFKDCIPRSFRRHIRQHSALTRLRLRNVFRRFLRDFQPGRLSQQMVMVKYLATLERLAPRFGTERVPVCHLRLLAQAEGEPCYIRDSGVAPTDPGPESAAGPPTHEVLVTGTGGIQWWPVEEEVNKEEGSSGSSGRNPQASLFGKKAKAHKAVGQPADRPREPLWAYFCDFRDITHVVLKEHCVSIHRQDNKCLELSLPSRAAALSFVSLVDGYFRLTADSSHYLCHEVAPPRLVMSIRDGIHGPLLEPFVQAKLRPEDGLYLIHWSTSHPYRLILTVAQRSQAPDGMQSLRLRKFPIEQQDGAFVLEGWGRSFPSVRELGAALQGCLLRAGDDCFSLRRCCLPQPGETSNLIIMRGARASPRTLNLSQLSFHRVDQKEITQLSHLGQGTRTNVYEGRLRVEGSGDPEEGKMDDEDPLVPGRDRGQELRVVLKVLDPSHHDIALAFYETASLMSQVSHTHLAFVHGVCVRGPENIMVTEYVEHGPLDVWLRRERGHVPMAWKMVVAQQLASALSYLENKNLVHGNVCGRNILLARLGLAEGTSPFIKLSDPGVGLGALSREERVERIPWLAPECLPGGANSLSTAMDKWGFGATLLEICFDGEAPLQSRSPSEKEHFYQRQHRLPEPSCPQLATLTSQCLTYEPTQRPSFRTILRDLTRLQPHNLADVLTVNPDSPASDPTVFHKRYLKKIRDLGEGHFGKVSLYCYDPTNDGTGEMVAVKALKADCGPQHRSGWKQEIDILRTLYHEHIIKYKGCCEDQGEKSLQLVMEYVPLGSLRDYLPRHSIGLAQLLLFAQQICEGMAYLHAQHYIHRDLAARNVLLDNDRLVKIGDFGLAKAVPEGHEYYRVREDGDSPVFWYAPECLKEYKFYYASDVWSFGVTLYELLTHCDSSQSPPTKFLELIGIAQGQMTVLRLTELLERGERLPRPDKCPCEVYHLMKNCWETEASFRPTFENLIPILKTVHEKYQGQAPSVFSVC
Where [1] appears, read: TR-FRET probe displacement, JH2 domain of human Tyk2.
Setting [2] is: JH2 domain of human Tyk2, TR-FRET probe displacement.

Sequence of JH2 domain of human Tyk2 (P29597 575-876): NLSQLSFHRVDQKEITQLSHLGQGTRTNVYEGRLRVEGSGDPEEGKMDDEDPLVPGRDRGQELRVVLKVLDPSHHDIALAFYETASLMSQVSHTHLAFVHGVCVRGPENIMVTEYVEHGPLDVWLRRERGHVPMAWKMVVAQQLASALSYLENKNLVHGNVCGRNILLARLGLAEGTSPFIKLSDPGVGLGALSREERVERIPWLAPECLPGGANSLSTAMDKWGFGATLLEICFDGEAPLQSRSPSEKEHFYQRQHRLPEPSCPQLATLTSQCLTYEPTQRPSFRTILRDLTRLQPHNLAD

Regarding `COc1ccnc(COc2cnc(NC(C)=O)cc2Nc2cc(C)nc(C(C)(F)F)n2)n1` [Example 345, N-(4-((2-(1,1-difluoroethyl)-6-methylpyrimidin-4-yl)amino)-5-((4-methoxypyrimidin-2-yl)methoxy)pyridin-2-yl)acetamide], the IC50 at JH2 domain of human Tyk2 (setting [1]) was 10 to 100 nM; against Tyk2, 100 to 1000 nM.
With `COc1cc(COc2cnc(NC(C)=O)cc2Nc2cc(C)nc(C(C)(F)F)n2)ncn1` [Example 346, N-(4-((2-(1,1-difluoroethyl)-6-methylpyrimidin-4-yl)amino)-5-((6-methoxypyrimidin-4-yl)methoxy)pyridin-2-yl)acetamide], the IC50 on JH2 domain of human Tyk2 (setting [1]) was no more than 10 nM; against Tyk2, 10 to 100 nM.
Turning to `CC(=O)Nc1cc(Nc2cc(OC3CC3)nc(C(C)(F)F)n2)c(OCc2ccccn2)cn1` [Example 348, N-(4-((6-cyclopropoxy-2-(1,1-difluoroethyl)pyrimidin-4-yl)amino)-5-(pyridin-2-ylmethoxy)pyridin-2-yl)acetamide], the IC50 on JH2 domain of human Tyk2 (setting [1]) was no more than 10 nM; against Tyk2, 10 to 100 nM.
On to `CC(=O)Nc1cc(Nc2cc(OC3CC3)nc(C(C)(F)F)n2)c(OCc2ccc(F)c(F)c2)cn1` [Example 349, N-(4-((6-cyclopropoxy-2-(1,1-difluoroethyl)pyrimidin-4-yl)amino)-5-((3,4-difluorobenzyl)oxy)pyridin-2-yl)acetamide], for which the IC50 at JH2 domain of human Tyk2 (setting [1]) and against Tyk2 was no more than 10 nM in each case.
On to `CC(=O)Nc1cc(Nc2cc(OC3CC3)nc(C(C)(F)F)n2)c(O[C@H]2C[C@H](F)C2)cn1` [Example 352, N-(4-((6-cyclopropoxy-2-(1,1-difluoroethyl)pyrimidin-4-yl)amino)-5-((1r,3r)-3-fluorocyclobutoxy)pyridin-2-yl)acetamide], for which the IC50 is no more than 10 nM on JH2 domain of human Tyk2 (setting [1]) and 10 to 100 nM against Tyk2.
Regarding `CC(=O)Nc1cc(Nc2cc(C)nc(C(C)(F)F)n2)c(OCc2cnn(C3CCC3)c2)cn1` [Example 354, N-(5-((1-cyclobutyl-1H-pyrazol-4-yl)methoxy)-4-((2-(1,1-difluoroethyl)-6-methylpyrimidin-4-yl)amino)pyridin-2-yl)acetamide], the figures for the IC50 on JH2 domain of human Tyk2 (setting [1]) and against Tyk2 were no more than 10 nM and 100 to 1000 nM, respectively.
With `CC(=O)Nc1cc(Nc2cc(C)nc(C(C)(F)F)n2)c(OCc2cccnc2)cn1` [Example 355, N-(4-((2-(1,1-difluoroethyl)-6-methylpyrimidin-4-yl)amino)-5-(pyridin-3-ylmethoxy)pyridin-2-yl)acetamide], the results for the IC50 at JH2 domain of human Tyk2 (setting [1]) and against Tyk2 were no more than 10 nM and 10 to 100 nM, respectively.
On the same counts, the results for `COc1cnc(Oc2cnc(NC(C)=O)cc2Nc2cc(C)nc(C(C)(F)F)n2)cn1` [Example 356, N-(4-((2-(1,1-difluoroethyl)-6-methylpyrimidin-4-yl)amino)-5-((5-methoxypyrazin-2-yl)oxy)pyridin-2-yl)acetamide] are no less than 1000 nM and no less than 1000 nM.
`COc1cncc(Oc2cnc(NC(C)=O)cc2Nc2cc(C)nc(C(C)(F)F)n2)n1` [Example 357, N-(4-((2-(1,1-difluoroethyl)-6-methylpyrimidin-4-yl)amino)-5-((6-methoxypyrazin-2-yl)oxy)pyridin-2-yl)acetamide]: the IC50 is 10 to 100 nM at JH2 domain of human Tyk2 (setting [1]) and no less than 1000 nM at Tyk2.
On the same counts, the results for `CC(=O)Nc1cc(Nc2cc(C)nc(C(C)(F)F)n2)c(Oc2ccnc(C(F)(F)F)n2)cn1` [Example 359, N-(4-((2-(1,1-difluoroethyl)-6-methylpyrimidin-4-yl)amino)-5-((2-(trifluoromethyl)pyrimidin-4-yl)oxy)pyridin-2-yl)acetamide] are no less than 1000 nM and no less than 1000 nM.
In the case of `[2H]C([2H])([2H])C([2H])([2H])Oc1cnc(NC(C)=O)cc1Nc1cc(-c2cnn(C(C)C)c2)nc(C(C)(F)F)n1` [Example 361, N-(4-((2-(1,1-difluoroethyl)-6-(1-isopropyl-1H-pyrazol-4-yl)pyrimidin-4-yl)amino)-5-(ethoxy-d5)pyridin-2-yl)acetamide], the half-inhibitory concentration (IC50) on JH2 domain of human Tyk2 (setting [1]) and at Tyk2 was no more than 10 nM throughout.
`COc1cnc(NC(C)=O)cc1Nc1cc(-c2cnn(C(C)C)c2)nc(C(C)(F)F)n1` [Example 363, N-(4-((2-(1,1-difluoroethyl)-6-(1-isopropyl-1H-pyrazol-4-yl)pyrimidin-4-yl)amino)-5-methoxypyridin-2-yl)acetamide]: the IC50 at JH2 domain of human Tyk2 (setting [1]) and against Tyk2 was no more than 10 nM throughout.
Consider `CC(=O)Nc1cc(Nc2cc(C(C)C)nc(C(C)(F)F)n2)c(OCc2ccccn2)cn1` [Example 365, N-(4-((2-(1,1-difluoroethyl)-6-isopropylpyrimidin-4-yl)amino)-5-(pyridin-2-ylmethoxy)pyridin-2-yl)acetamide], for which the IC50 on JH2 domain of human Tyk2 (setting [1]) and against Tyk2 was no more than 10 nM in each case.
With `COCCOc1cnc(NC(C)=O)cc1Nc1cc(-c2cnn(C(C)C)c2)nc(C(C)(F)F)n1` [Example 366, N-(4-((2-(1,1-difluoroethyl)-6-(1-isopropyl-1H-pyrazol-4-yl)pyrimidin-4-yl)amino)-5-(2-methoxyethoxy)pyridin-2-yl)acetamide], the IC50 on JH2 domain of human Tyk2 (setting [1]) and on Tyk2 was no more than 10 nM each time.
For `CCOc1cnc(NC(C)=O)cc1Nc1cc(-c2cncc(C)c2)nc(C(C)(F)F)n1` [Example 367, N-(4-((2-(1,1-difluoroethyl)-6-(5-methylpyridin-3-yl)pyrimidin-4-yl)amino)-5-ethoxypyridin-2-yl)acetamide], the IC50 on JH2 domain of human Tyk2 (setting [1]) was no more than 10 nM; at Tyk2, 10 to 100 nM.
On the same counts, the results for `CCOc1cnc(NC(C)=O)cc1Nc1cc(-c2ccc(CC)nc2)nc(C(C)(F)F)n1` [Example 368, N-(4-((2-(1,1-difluoroethyl)-6-(6-ethylpyridin-3-yl)pyrimidin-4-yl)amino)-5-ethoxypyridin-2-yl)acetamide] are no more than 10 nM and no more than 10 nM.
On the same counts, the results for `CCOc1cnc(NC(C)=O)cc1Nc1cc(-c2ccc(OC)nc2)nc(C(C)(F)F)n1` [Example 369, N-(4-((2-(1,1-difluoroethyl)-6-(6-methoxypyridin-3-yl)pyrimidin-4-yl)amino)-5-ethoxypyridin-2-yl)acetamide] are no more than 10 nM and 10 to 100 nM.
As to `CCOc1cnc(NC(C)=O)cc1Nc1cc(-c2cncc(OC)c2)nc(C(C)(F)F)n1` [Example 370, N-(4-((2-(1,1-difluoroethyl)-6-(5-methoxypyridin-3-yl)pyrimidin-4-yl)amino)-5-ethoxypyridin-2-yl)acetamide], the IC50 is no more than 10 nM on JH2 domain of human Tyk2 (setting [2]) and 10 to 100 nM at Tyk2.
Take `CCOc1cnc(NC(C)=O)cc1Nc1cc(-c2cnn(CC(C)C)c2)nc(C(C)(F)F)n1` [Example 371, N-(4-((2-(1,1-difluoroethyl)-6-(1-isobutyl-1H-pyrazol-4-yl)pyrimidin-4-yl)amino)-5-ethoxypyridin-2-yl)acetamide]: the half-maximal inhibitory concentration (IC50) on JH2 domain of human Tyk2 (setting [2]) and against Tyk2 was no more than 10 nM in each case.
`CCOc1cnc(NC(C)=O)cc1Nc1cc(Cl)nc(C(C)(F)F)n1` [Example 372, N-(4-((6-chloro-2-(1,1-difluoroethyl)pyrimidin-4-yl)amino)-5-ethoxypyridin-2-yl)acetamide]: the IC50 at JH2 domain of human Tyk2 (setting [2]) is no more than 10 nM; against Tyk2, 10 to 100 nM.
Take `COc1cnc(NC(C)=O)cc1Nc1cc(-c2ccncc2F)nc(C(C)(F)F)n1` [Example 373, N-(4-((2-(1,1-difluoroethyl)-6-(3-fluoropyridin-4-yl)pyrimidin-4-yl)amino)-5-methoxypyridin-2-yl)acetamide]: the IC50 at JH2 domain of human Tyk2 (setting [2]) is no more than 10 nM; against Tyk2, 10 to 100 nM.

The IC50 is the concentration at which inhibition is half-maximal.

The record behind these values is patent US20260028365A1 (BIOGEN MA INC., priority 2022, published 2026).
